# Measured values as given in BindingDB's records for doi:10.7270/Q2MP51PC (Pcmd, 2008).
# Biological target: T1, Complement C1s subcomponent (Homo sapiens, UniProt P09871)
# T1 sequence (P09871 whole entry): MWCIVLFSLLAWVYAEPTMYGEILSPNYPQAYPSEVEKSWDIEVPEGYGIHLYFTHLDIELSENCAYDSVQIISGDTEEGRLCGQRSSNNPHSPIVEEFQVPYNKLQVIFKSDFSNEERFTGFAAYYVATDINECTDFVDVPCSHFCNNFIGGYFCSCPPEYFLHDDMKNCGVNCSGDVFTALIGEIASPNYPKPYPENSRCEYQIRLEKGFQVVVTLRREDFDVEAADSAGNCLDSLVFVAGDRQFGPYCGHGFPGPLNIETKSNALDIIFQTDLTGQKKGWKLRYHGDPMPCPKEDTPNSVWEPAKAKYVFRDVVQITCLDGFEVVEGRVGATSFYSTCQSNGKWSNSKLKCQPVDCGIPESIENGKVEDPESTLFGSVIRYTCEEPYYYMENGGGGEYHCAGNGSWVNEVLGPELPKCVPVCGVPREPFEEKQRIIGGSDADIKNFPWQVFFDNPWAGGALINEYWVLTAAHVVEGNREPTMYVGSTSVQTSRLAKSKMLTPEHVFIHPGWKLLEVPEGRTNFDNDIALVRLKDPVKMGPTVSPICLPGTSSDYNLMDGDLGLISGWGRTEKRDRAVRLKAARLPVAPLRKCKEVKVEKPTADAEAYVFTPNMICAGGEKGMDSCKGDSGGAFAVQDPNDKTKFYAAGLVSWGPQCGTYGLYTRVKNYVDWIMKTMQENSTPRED
# Assay: concentration-response of complement C1s inhibitors – biochemical, dose response (AID 787)
row,SMILES,IC50 [µM]
1,"CCOC(=O)c1ccc(CSc2nncn2N)o1 [5-[[(4-amino-1,2,4-triazol-3-yl)thio]methyl]-2-furancarboxylic acid ethyl ester]",> 50
2,N#Cc1cnn(CC2CCCCC2)c1N [5-amino-1-(cyclohexylmethyl)-4-pyrazolecarbonitrile],> 50
3,"Cc1cc(NC(=O)c2cc3nc(C4CC4)cc(C(F)(F)F)n3n2)no1 [5-cyclopropyl-N-(5-methyl-1,2-oxazol-3-yl)-7-(trifluoromethyl)pyrazolo[1,5-a]pyrimidine-2-carboxamide]",> 50
4,Cc1ccc(CCNC(=O)C2CCC(=O)N2Cc2cccnc2)cc1 (stereo not given) [5-keto-N-[2-(p-tolyl)ethyl]-1-(3-pyridylmethyl)pyrrolidine-2-carboxamide],> 50
5,"CCOc1cc2[nH]c(=S)n(CC3CCCO3)c(=O)c2cc1OCC (stereo not given) [6,7-diethoxy-3-(2-oxolanylmethyl)-2-sulfanylidene-1H-quinazolin-4-one]",> 50
6,"O=C(Cn1c(=O)oc2cc(S(=O)(=O)N3CCc4ccccc43)ccc21)N1CCCCC1 [6-(2,3-dihydroindol-1-ylsulfonyl)-3-(2-oxidanylidene-2-piperidin-1-yl-ethyl)-1,3-benzoxazol-2-one]",> 50
7,"CC(=O)c1cc2c(cc1NC(=O)C1CC=CCC1C(=O)O)OCO2 (stereo not given) [6-[(6-acetyl-1,3-benzodioxol-5-yl)carbamoyl]cyclohex-3-ene-1-carboxylic acid]",> 50
8,"Cc1coc2c(C)c3oc(=O)c4c(c3cc12)CCCC4 [7,10-dimethyl-1,2,3,4-tetrahydro-[1]benzofuro[6,5-c]isochromen-5-one]",> 50
9,"CCOc1ccc(C2CC(c3cccc(Cl)c3)n3nc(N)nc3N2)cc1 (stereo not given) [7-(3-chlorophenyl)-5-(4-ethoxyphenyl)-1,5,6,7-tetrahydro-[1,2,4]triazolo[1,5-a]pyrimidin-2-amine]",> 50
10,"COc1cc(C(Nc2ccccn2)c2ccc3ccc(C)nc3c2O)cc(OC)c1O (stereo not given) [7-[(3,5-dimethoxy-4-oxidanyl-phenyl)-(pyridin-2-ylamino)methyl]-2-methyl-quinolin-8-ol]",> 50
11,"Cc1nnc(SC(=O)N2c3ccccc3Sc3ccccc32)s1 [10-phenothiazinecarbothioic acid S-(5-methyl-1,3,4-thiadiazol-2-yl) ester]",> 50
12,"COc1ccc(Nc2cc(C)nc3nc(C)nn23)c(OC)c1 [(2,4-dimethoxyphenyl)-(2,5-dimethyl-[1,2,4]triazolo[1,5-a]pyrimidin-7-yl)amine]",> 50
13,COc1ccccc1Nc1nc(-c2cccs2)cs1 [(2-methoxyphenyl)-[4-(2-thienyl)thiazol-2-yl]amine],> 50
14,COc1ccc(CC(=O)OCc2cc3ccccc3[nH]c2=O)cc1 [(2-oxidanylidene-1H-quinolin-3-yl)methyl 2-(4-methoxyphenyl)ethanoate],> 50
15,"COc1ccc(C(=O)n2nc(-c3ccco3)nc2SC)cc1OC [(3,4-dimethoxyphenyl)-[3-(2-furanyl)-5-(methylthio)-1,2,4-triazol-1-yl]methanone]",2.37
16,"Cc1noc(C)c1COC(=O)c1ccccc1NC(=O)Cc1ccccc1 [(3,5-dimethyl-1,2-oxazol-4-yl)methyl 2-(2-phenylethanoylamino)benzoate]",> 50
17,COc1ccc(C(=O)n2ccc(C)n2)cc1Br [(3-bromanyl-4-methoxy-phenyl)-(3-methylpyrazol-1-yl)methanone],> 50
18,Oc1cccc(C(=S)N2CCN(Cc3ccccc3)CC2)c1 [(3-hydroxyphenyl)-[4-(phenylmethyl)-1-piperazinyl]methanethione],> 50
19,CCCS(=O)(=O)N1CCC(C(=O)N2CCN(Cc3ccccc3)CC2)CC1 [(4-benzylpiperazin-1-yl)-(1-propylsulfonylpiperidin-4-yl)methanone],> 50
20,"CCN1CCN(C=Nc2nc3c(s2)CCCC3)CC1 [(4-ethylpiperazino)methylene-(4,5,6,7-tetrahydro-1,3-benzothiazol-2-yl)amine]",> 50
21,"COc1ccc(C(=O)OCn2nnc3ccccc3c2=O)cc1OC [(4-oxidanylidene-1,2,3-benzotriazin-3-yl)methyl 3,4-dimethoxybenzoate]",> 50
22,"Cc1cccc(COc2ccc(C(=O)C3C(=O)C(=O)N(CCN(C)C)C3c3ccncc3)cc2)c1 (stereo not given) [(4E)-1-[2-(dimethylamino)ethyl]-4-[[4-[(3-methylphenyl)methoxy]phenyl]-oxidanyl-methylidene]-5-pyridin-4-yl-pyrrolidine-2,3-dione]",> 50
23,"Nc1nc(C(=O)N2CCOCC2)nn1C(=O)c1ccc(Cl)cc1 [(5-azanyl-3-morpholin-4-ylcarbonyl-1,2,4-triazol-1-yl)-(4-chlorophenyl)methanone]",12.1
24,CC1CNC(=Nc2cccc3ccccc23)S1 (stereo not given) [(5-methyl-2-thiazolin-2-yl)-(1-naphthyl)amine],> 50
25,"CCOC(=O)N1CCC2=C(C#N)C(=N)C(C#N)(C#N)[C@H](c3ccccc3OCC)[C@H]2C1 [(8R,8aR)-6-amino-5,7,7-tricyano-8-(2-ethoxyphenyl)-1,3,8,8a-tetrahydroisoquinoline-2-carboxylic acid ethyl ester]",> 50
26,"CNC=C1C(=O)C(C)(C)Oc2ccc3ccc(=O)oc3c21 [(10Z)-8,8-dimethyl-10-(methylaminomethylene)pyrano[2,3-f]chromene-2,9-quinone]",> 50
27,COC(=O)c1ccc(OC(=O)c2ccco2)cc1 [Furan-2-carboxylic acid 4-methoxycarbonyl-phenyl ester],17.1
28,CCC(=O)Oc1ccc(C(CC)C(CC)c2ccc(OC(=O)CC)cc2)cc1 (stereo not given) [HEXESTROL DIPROPIONATE],> 50

# The next lines start with the values.
row,IC50 [µM],SMILES
1,> 50,O=C1CS/C(=N\c2ccc(O)cc2)N1c1ccc(O)cc1 [MLS000027731]
2,> 50,COc1cc(NC(=O)c2cccs2)c(OC)cc1NC(=O)CCn1nnc2ccccc21 [MLS000027885]
3,11.3,COc1ccc(S(=O)(=O)n2nc(OC(=O)c3ccco3)cc2N)cc1 [MLS000033887]
4,> 50,O=c1cc(-c2ccccc2)[nH]c2nc(-c3ccccc3)nn12 [MLS000037061]
5,> 50,O=C(NC1CCS(=O)(=O)C1)c1cccc(S(=O)(=O)N2CCCCC2)c1 (stereo not given) [MLS000049608]
6,> 50,COc1ccc(NC(=O)C2CCC(=O)N2S(=O)(=O)c2ccc(C)cc2)c(OC)c1 (stereo not given) [MLS000050140]
7,> 50,Cc1csc(NC(=O)c2cccc(S(=O)(=O)N3CCCCC3)c2)n1 [MLS000058185]
8,> 50,COc1ccc(NC(=O)c2cccs2)cc1OC [MLS000058874]
9,> 50,O=C(Nc1ccc(Cl)cc1)c1ccc2c(c1)OCO2 [MLS000062068]
10,> 50,O=C(NC1CCCC1)c1cccc(S(=O)(=O)N2CCCCC2)c1 [MLS000065413]
11,> 50,O=C(NCc1ccco1)c1cccc(S(=O)(=O)N2CCCCC2)c1 [MLS000065416]
12,14.9,O=C(c1csc2ccccc12)n1cccn1 [MLS000065687]
13,> 50,Cc1ccc(NS(=O)(=O)c2cc(C(=O)N3CCOCC3)ccc2C)cc1C [MLS000066131]
14,> 50,CCCCC(=O)Nc1ccc(NC(=O)c2cccnc2)cn1 [MLS000068397]
15,> 50,O=C(c1ccco1)N1CCN(S(=O)(=O)c2ccc(S(=O)(=O)NC3CCCCC3)cc2)CC1 [MLS000068710]
16,> 50,O=C(N1CCOCC1)C12CCC3CC(CC(C3)C1)C2 [MLS000071057]
17,> 50,O=C(Nc1ccc2oc(=O)ccc2c1)c1cccnc1 [MLS000075075]
